Assay [1] deals with T1, IDO1 enzyme in the Hela cell (Homo sapiens, UniProt P14902).
T1 construct: endogenous in cells; host or cells: HeLa cells stimulated with interferon γ (100 ng/ml)
The assay can be described thus: Cell activity: interferon γ-stimulated Hela cells, absorbance of supernatant at 480 nm. Format: cell-based. The settings on record: interferon γ 100 ng/ml, 72 hours. Here is the method:
(2) Method for Determining Cell Activity
Hela cells were cultured and passaged in a DMEM medium supplemented with antibiotics in a 37° C. CO2 incubator, inoculated into a 96-well plate for overnight culture, then 1 μl of heterocyclic urea compound with appropriate concentration was added to each well, and then 100 μl of interferon γ (final concentration was 100 ng/ml) was added. After the cells were continuously cultured for 72 hours, 70 μl of cell culture supernatant was added to a 96-well V-bottom plate, 5 μl of trichloroacetic acid (6.1 N) was added to each well, incubated at 50° C. for 30 min, then taken out and centrifuged at […] for 10 min. The above centrifuged supernatant was transferred to a 384-well microplate (20 μl/well), then 20 μl of 2% didimethylaminobenzaldehyde acetic acid solution was added to each well, shaken and mixed evenly, then photometric absorption was performed at 480 nm, and values were measured.

For another assay, the target named is IDO1 enzyme (Homo sapiens, UniProt P14902). The assay can be described thus: Determination of biochemical activity of IDO1 enzyme (absorbance at 320 nm). The following applies: room temperature, 3 hours. Here is the method: (1) Method for Determining Biochemical Activity of IDO1 Enzyme
Firstly, 15 μl of buffer solution of sodium hydrogen phosphate (PH:7-8), 5 μl of reaction buffer solution containing a proper amount of IDO-1 enzyme and heterocyclic urea compound prepared by the invention were added into wells of a microplate, mixed evenly, and reacted at room temperature for 3 hours; then a light absorption value at 320 nm wavelength was detected by using Envision Multilabel Reader of PE company, an inhibition rate of the heterocyclic urea compound on the enzyme reaction was calculated according to an absorption ratio, and an IC50 value of the heterocyclic urea compound was calculated through analysis by GraphPad.

Sequence of IDO1 enzyme (P14902 whole entry): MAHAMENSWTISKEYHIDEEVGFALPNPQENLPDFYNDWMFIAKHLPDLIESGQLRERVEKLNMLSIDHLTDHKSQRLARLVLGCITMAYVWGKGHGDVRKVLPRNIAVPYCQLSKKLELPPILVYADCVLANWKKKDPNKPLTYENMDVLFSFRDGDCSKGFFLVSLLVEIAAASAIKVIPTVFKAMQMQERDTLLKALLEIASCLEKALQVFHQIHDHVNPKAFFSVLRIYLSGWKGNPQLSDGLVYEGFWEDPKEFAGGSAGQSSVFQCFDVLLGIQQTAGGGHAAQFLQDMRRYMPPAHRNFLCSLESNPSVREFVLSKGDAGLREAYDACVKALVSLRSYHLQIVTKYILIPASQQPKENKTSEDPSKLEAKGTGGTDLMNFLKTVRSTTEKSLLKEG
T1 sequence (P14902 whole entry): as above

Usually IC50 stands for the concentration at which inhibition is half-maximal. As for `COc1ccc(NC(=O)Nc2nonc2/C(=N/O)Nc2ccc(F)c(Br)c2)cc1` [Embodiment 1, (Z)-1-(4-(N-(3-bromo-4-fluorophenyl)-N′-hydroxyaminoiminomethyl)-1,2,5-oxadiazole-3-substituted)-3-(4-methoxyphenyl)urea], the 50% inhibitory concentration (IC50) (in assay [1]; on IDO1 enzyme) was 0.1 to 1 µM each time.
Take `CCc1cccc(NC(=O)Nc2nonc2/C(=N/O)Nc2ccc(F)c(Br)c2)c1` [Embodiment 2, (Z)-1-(4-(N-(3-bromo-4-fluorophenyl)-N′-hydroxyaminoiminomethyl)-1,2,5-oxadiazole-3-substituted)-3-(3-ethylphenyl)urea]: the 50% inhibitory concentration (IC50) (in assay [1]; at IDO1 enzyme) was 0.1 to 1 µM in each case.
In the case of `COc1ccccc1NC(=O)Nc1nonc1/C(=N/O)Nc1ccc(F)c(Br)c1` [Embodiment 3, (Z)-1-(4-(N-(3-bromo-4-fluorophenyl)-N′-hydroxyaminoiminomethyl)-1,2,5-oxadiazole-3-substituted)-3-(2-methoxyphenyl)urea], the IC50 (in assay [1]; at IDO1 enzyme) was over 1 µM each time.
With `Cc1ccc(NC(=O)Nc2nonc2/C(=N/O)Nc2ccc(F)c(Br)c2)cc1` [Embodiment 4], the IC50 (in assay [1]; against IDO1 enzyme) was over 1 µM each time.
In the case of `O=C(Nc1ccc(F)cc1)Nc1nonc1/C(=N/O)Nc1ccc(F)c(Br)c1` [Embodiment 5, (Z)-1-(4-(N-(4-bromo-3-fluorophenyl)-N′-hydroxyaminoiminomethyl)-1,2,5-oxadiazole-3-substituted)-3-(4-fluorophenyl)urea], the IC50 (in assay [1]; against IDO1 enzyme) was over 1 µM in each case.
For `O=C(Nc1ccc(C(F)(F)F)cc1)Nc1nonc1/C(=N/O)Nc1ccc(F)c(Br)c1` [Embodiment 6, (Z)-1-(4-(N-(3-bromo-4-fluorophenyl)-N′-hydroxyaminoiminomethyl)-1,2,5-oxadiazole-3-substituted)-3-(4-trifluorotolyl)urea], the IC50 (in assay [1]; against IDO1 enzyme) was over 1 µM each time.
As to `O=C(Nc1nonc1/C(=N/O)Nc1ccc(F)c(Br)c1)NC1CCCCC1` [Embodiment 7, (Z)-1-(4-(N-(3-bromo-4-fluorophenyl)-N′-hydroxyaminoiminomethyl)-1,2,5-oxadiazole-3-substituted)-3-cyclohexylurea], the IC50 (in assay [1]; at IDO1 enzyme) was 0.1 to 1 µM each time.
For `O=C(Nc1nonc1/C(=N/O)Nc1ccc(F)c(Br)c1)NC1CCCC1` [Embodiment 8, (Z)-1-(4-(N-(3-bromo-4-fluorophenyl)-N′-hydroxyaminoiminomethyl)-1,2,5-oxadiazole-3-substituted)-3-cyclopentylurea], the 50% inhibitory concentration (IC50) (in assay [1]; at IDO1 enzyme) was 0.1 to 1 µM throughout.
With `CC1CCC(NC(=O)Nc2nonc2/C(=N/O)Nc2ccc(F)c(Br)c2)CC1` (stereo not shown) [Embodiment 9, (Z)-1-(4-(N-(3-bromo-4-fluorophenyl)-N′-hydroxyaminoiminomethyl)-1,2,5-oxadiazole-3-substituted)-3-(4-methylcyclohexyl)urea], the 50% inhibitory concentration (IC50) (in assay [1]; against IDO1 enzyme) was over 1 µM throughout.
In the case of `O=C(Nc1nonc1/C(=N/O)Nc1ccc(F)c(Br)c1)NC1CCOCC1` [Embodiment 10, (Z)-1-(4-(N-(3-bromo-4-fluorophenyl)-N′-hydroxyaminoiminomethyl)-1,2,5-oxadiazole-3-substituted)-3-(tetrahydro-2H-pyran-4-substituted)urea], the half-inhibitory concentration (IC50) (in assay [1]; against IDO1 enzyme) was under 0.001 µM each time.
As for `O=C(Nc1nonc1/C(=N/O)Nc1ccc(F)c(Br)c1)NC1CCNCC1` [Embodiment 11, (Z)-1-(4-(N-(3-bromo-4-fluorophenyl)-N′-hydroxyaminoiminomethyl)-1,2,5-oxadiazole-3-substituted)-3-(piperidine-4-substituted)urea], the 50% inhibitory concentration (IC50) (in assay [1]; at IDO1 enzyme) was under 0.001 µM throughout.
`CS(=O)(=O)N1CCC(NC(=O)Nc2nonc2/C(=N/O)Nc2ccc(F)c(Br)c2)CC1` [Embodiment 12, (Z)-1-(4-(N-(3-bromo-4-fluorophenyl)-N′-hydroxyaminoiminomethyl)-1,2,5-oxadiazole-3-substituted)-3-(1(methsulfonyl)piperidine-4-substituted)urea]: the half-inhibitory concentration (IC50) (in assay [1]; against IDO1 enzyme) was 0.1 to 1 µM throughout.
For `O=C(NCCCO)Nc1nonc1/C(=N/O)Nc1ccc(F)c(Br)c1` [Embodiment 13, (Z)-1-(4-(N-(3-bromo-4-fluorophenyl)-N′-hydroxyaminoiminomethyl)-1,2,5-oxadiazole-3-substituted)-3-(3-hydroxypropane)urea], the IC50 (in assay [1]; against IDO1 enzyme) was under 0.001 µM in each case.
For `NCCCNC(=O)Nc1nonc1/C(=N/O)Nc1ccc(F)c(Br)c1` [Embodiment 14, (Z)-1-(4-(N-(3-bromo-4-fluorophenyl)-N′-hydroxyaminoiminomethyl)-1,2,5-oxadiazole-3-substituted)-3-(3-aminopropane)urea], the IC50 (in assay [1]; against IDO1 enzyme) was under 0.001 µM throughout.
With `NS(=O)(=O)N1CCC(NC(=O)Nc2nonc2/C(=N/O)Nc2ccc(F)c(Br)c2)CC1` [Embodiment 15, (Z)-1-(4-(N-(3-bromo-4-fluorophenyl)-N′-hydroxyaminoiminomethyl)-1,2,5-oxadiazole-3-substituted)-3-(1(aminosulfonyl)piperidine-4-substituted)urea], the IC50 (in assay [1]; on IDO1 enzyme) was under 0.001 µM each time.
In the case of `NCCNC(=O)Nc1nonc1/C(=N/O)Nc1ccc(F)c(Br)c1` [Embodiment 16, (Z)-1-(4-(N-(3-bromo-4-fluorophenyl)-N′-hydroxyaminoiminomethyl)-1,2,5-oxadiazole-3-substituted)-3-(2-aminoethyl)urea], the half-maximal inhibitory concentration (IC50) (in assay [1]; on IDO1 enzyme) was 0.1 to 1 µM each time.
On to `CS(=O)(=O)NCCCNC(=O)Nc1nonc1/C(=N/O)Nc1ccc(F)c(Br)c1` [Embodiment 17, (Z)-1-(4-(N-(3-bromo-4-fluorophenyl)-N′-hydroxyaminoiminomethyl)-1,2,5-oxadiazole-3-substituted)-3-(3-methamido-propyl)urea], for which the IC50 (in assay [1]; on IDO1 enzyme) was under 0.001 µM each time.
Regarding `NS(=O)(=O)NCCCNC(=O)Nc1nonc1/C(=N/O)Nc1ccc(F)c(Br)c1` [Embodiment 18, (Z)-1-(4-(N-(3-bromo-4-fluorophenyl)-N′-hydroxyaminoiminomethyl)-1,2,5-oxadiazole-3-substituted)-3-(3-aminosulfonylamino-propyl)urea], the IC50 (in assay [1]; against IDO1 enzyme) was under 0.001 µM each time.
For the compound `O=C(Nc1ccccc1)Nc1nonc1/C(=N/O)Nc1ccc(F)c(Br)c1` [Embodiment 19, (Z)-1-(4-(N-(4-bromo-3-fluorophenyl)-N′-hydroxyaminoiminomethyl)-1,2,5-oxadiazole-3-substituted)-3-phenylurea], the IC50 (in assay [1]; on IDO1 enzyme) was 0.1 to 1 µM each time.
`COc1ccc(NC(=O)Nc2nonc2/C(=N/O)Nc2ccc(F)c(Br)c2)c(F)c1` [Embodiment 20, (Z)-1-(4-(N-(3-bromo-4-fluorophenyl)-N′-hydroxyaminoiminomethyl)-1,2,5-oxadiazole-3-substituted)-3-(4-methoxy-2-fluorophenyl)urea]: the 50% inhibitory concentration (IC50) (in assay [1]; against IDO1 enzyme) was 0.1 to 1 µM each time.
Consider `COc1ccc(NC(=O)Nc2nonc2/C(=N/O)Nc2ccc(F)c(Br)c2)cc1C(F)(F)F` [Embodiment 21, (Z)-1-(4-(N-(3-bromo-4-fluorophenyl)-N′-hydroxyaminoiminomethyl)-1,2,5-oxadiazole-3-substituted)-3-(4-methoxy-2-trifluoromethylphenyl)urea], for which the IC50 (in assay [1]; against IDO1 enzyme) was 0.1 to 1 µM each time.
Turning to `COc1ccc(NC(=O)Nc2nonc2/C(=N/O)Nc2ccc(F)c(Cl)c2)cc1` [Embodiment 22, (Z)-1-(4-(N-(3-chloro-4-fluorophenyl)-N′-hydroxyaminoiminomethyl)-1,2,5-oxadiazole-3-substituted)-3-(4-methoxyphenyl)urea], the concentration for half-maximal inhibition (IC50) (in assay [1]; at IDO1 enzyme) was 0.1 to 1 µM throughout.
In the case of `O=C(Nc1ccc(O)cc1)Nc1nonc1/C(=N/O)Nc1ccc(F)c(Cl)c1` [Embodiment 23], the IC50 (in assay [1]; at IDO1 enzyme) was under 0.001 µM in each case.
Take `Nc1ccc(NC(=O)Nc2nonc2/C(=N/O)Nc2ccc(F)c(Cl)c2)cc1` [Embodiment 24, (Z)-1-(4-(N-(3-chloro-4-fluorophenyl)-N′-hydroxyaminoiminomethyl)-1,2,5-oxadiazole-3-substituted)-3-(4-aminophenyl)urea]: the half-inhibitory concentration (IC50) (in assay [1]; against IDO1 enzyme) was under 0.001 µM each time.
As to `O=C(Nc1nonc1/C(=N/O)Nc1ccc(F)c(Cl)c1)NC1CCCCC1` [Embodiment 25, (Z)-1-(4-(N-(3-chloro-4-fluorophenyl)-N′-hydroxyaminoiminomethyl)-1,2,5-oxadiazole-3-substituted)-3-cyclohexylurea], the half-inhibitory concentration (IC50) (in assay [1]; against IDO1 enzyme) was 0.1 to 1 µM each time.
In the case of `NC1CCC(NC(=O)Nc2nonc2/C(=N/O)Nc2ccc(F)c(Cl)c2)CC1` (stereo not shown) [Embodiment 26], the IC50 (in assay [1]; against IDO1 enzyme) was under 0.001 µM each time.

The values are drawn from patent US11014895B2, “Heterocyclic urea compound, and drug composition and application thereof” (CHINA PHARMACEUTICAL UNIVERSITY, priority 2017, dated 2021).
